{"source": "patent US20220378763A1", "about": "“COMPOUND FOR TREATMENT OF ACUTE INFLAMMATION IN THE MYOCARDIUM” (CALPROTECT AB, priority 2019, published 2022)", "type_in_all_cases": "in vivo, mouse", "key": {"[1]": {"system": "C57BL/6 mice reconstituted with Nur77-EGFP bone marrow, with MI", "test": "Nur77 expression by flow cytometry in Nur77-EGFP bone marrow chimeras, day 7 post-MI", "conditions": "7 days treatment", "protocol": "Eight-week-old C57BL/6NRJ female mice were lethally irradiated with a total dose of 910 cGy. One day after irradiation, 1×10^6 total bone marrow cells harvested from donor C57BL/6-Tg(Nr4a1-EGFP/cre)820Khog/J (Nur77-EGFP) mouse and re-suspended in PBS were administered to each recipient mouse via the tail vein. Recipient mice were treated with neomycin in drinking water (2 g/L) for two weeks. Blood samples were collected from all the recipient mice at four weeks after bone marrow transfer, to confirm the success of bone marrow reconstitution by flow cytometry. The mice were used for experiments 6 weeks after bone marrow transfer (FIG. 4S).\nIn order to investigate the underlying molecular mechanisms involved in the […] of myocardial repair by S100A9 blockade, we induced MI in C57Bl/6 mice transplanted with Nur77-EGFP transgenic bone marrow expressing the fluorescent EGFP protein under the Nur77 promoter (FIG. 4S). The expression of Nur77 was measured by flow cytometry in blood monocytes and heart macrophages harvested on day 7 post-MI from mice receiving 7 days ABR-238901 treatment or PBS. […] Nur77 levels were unaffected in the fully-differentiated Ly6C^lo monocytes and Ly6C^loMerTK^hi macrophages (FIG. 4t; FIG. 11b). Further, we studied the influence of S100A9 on Nur77 expression and activity in monocytes and macrophages in-vitro, and the ability of ABR-238901 to inhibit these effects. Stimulation with recombinant extracellular S100A9 for 24 h increased Nur77 expression in bone marrow-derived C57BL/6 monocytes (FIG. 4U). […] Both of these effects were inhibited by ABR-238901 (FIG. 4U-V)."}, "[2]": {"system": "C57BL/6 mice with sepsis induced by bacterial lipopolysaccharide", "test": "LPS-induced sepsis: weight loss", "protocol": "General animal care, induction of sepsis and treatments were performed as described under Example 7. We included 5 mice per treatment group. After induction of sepsis, the mice were monitored for 7 days (FIG. 15A). To evaluate bodyweight, mice were weighed daily at the same time points during the course of the experiment."}, "[3]": {"system": "C57BL/6 mice with induced MI", "test": "Flow cytometry of myeloid cells and reparatory macrophages on day 7 post-MI", "conditions": "for Intra-myocardial counts of reparatory macrophages vs PBS-treated MI controls: hearts collected 7 days post-MI", "protocol": "Immune cells from blood, spleen, heart and bone-marrow were collected at 2 or 7 days post-MI, and analysed by flow-cytometry. Mice were anesthetized by intraperitoneal injection of a mixture of xylazine (10 mg/kg) and ketamine (100 mg/kg). After 10 minutes, blood was collected by cardiac punction. Thereafter, the spleen was removed and the heart was perfused with 5 ml ice-cold PBS. Perfused hearts were excised and collected into tubes with PBS and kept on ice. Femurs and tibias from each mouse were used to obtain whole bone marrow for analysis. Blood was stained with fluorochrome-labelled antibodies against mouse monocyte and neutrophil markers diluted in MACS buffer (PBS, 10% FCS and 0.5% BSA), followed by treatment with erythrocyte lysis buffer, washing and analysis. Spleens were mashed trough a cell strainer in ice-cold PBS. Hearts were cut into small pieces and placed into tubes containing 2.5 ml digestion cocktail (Collagenase I, 450 U/ml; Collagenase XI, 125 U/ml; DNAase I, 60 U/ml; Hyaluronidase type 1-5, 60 U/ml diluted in PBS containing Ca and Mg) incubated for 1 h at 37° C. with shaking at 220 rpm. Bone marrow was flushed from femur and tibia using ice-cold PBS. Cell suspensions from spleen, heart and bone marrow were filtered through a 40 um cell strainer (BD), treated with erythrocyte lysis buffer, washed and stained. For intracellular staining, cells were fixed, permeabilized and stained. Cell populations were analyzed by flow cytometry in a Gallios Flow Cytometer (Backman Coulter), and the results were analyzed using FlowJo (FlowJo®, LLC; Tree Star). The following anti-mouse antibodies were used for the flow cytometric analysis: anti-CD45 (30-F11), anti-CD11b (M1/70), anti-Ly6C (HK1.4), anti-CD115 (AFS98), anti-Ly6G (1A8), anti-F4/80 (BM8), anti-CCR2 (475301), anti-Ter119 (TER119), anti-Gr1 (RB6-8C5), anti-CD45R/B220 (RA3-6B2), anti-CD3ξ (145-2C11), anti-NK1.1 (PK136), anti-Ly6A/E (Sca-1) (E13-1617), anti-CD117 (c-kit) (2B8), anti-CD48 (HM48.1), anti-CD150/SLAM (TC15-12F12.2), anti-CD16/32 (93), anti-CD34 (MEC14.7) (all from BioLegend, San Diego, Calif., USA); anti-MerTK (DSSMMER) and anti-Nur77 (12.14) (eBioscience).\nMI induction and other procedures were carried out as outlined in Example 2. For long-term experiments of up to 21 days, a daily dose of 30 mg/Kg ABR-238901 was diluted in PBS and administered by daily i.p. injections for the first 3 days post-MI until the mice recovered and started to drink normally, and thereafter p.o. ad-libitum in meglumine buffer (FIG. 4A). Adequate treatment dosage was ensured by closely monitoring daily fluid intake.\nIn an attempt to explain these intriguing results, we assessed the effects of the extended treatment on the presence of myeloid cells in blood, spleen, bone marrow and myocardium, with particular emphasis on cellular populations involved in myocardial repair. The cellular infiltration was analysed by flow cytometry on day 7, at the peak of the reparatory post-MI period. […] Reparatory macrophages in the ischemic myocardium have previously been defined as CD11b^+F4/80^+Ly6C^lo cells. […] In order to investigate the possible mechanisms leading to impaired cardiac function in mice receiving long-term S100A9 blockade, we examined the presence and function of Ly6C^loMerTK^hi macrophages in the myocardium at 7 days post-MI. We found an approximately 50% reduction of the number of reparatory macrophages in hearts of mice receiving ABR-238901 compared to controls (FIG. 40). […] In order to test the functional importance of these findings, we used α-MHC-mCherry mice expressing cardiac-specific red fluorescent Cherry protein under the mouse a-myosin heavy-chain promoter.\nReparatory macrophage numbers were analysed in hearts collected at 7 days post-MI from mice with induced MI treated with ABR-238901 for 3 or 7 days."}, "[4]": {"conditions": "treatment for 7 days, 7 days post-MI"}}}
{"compound": "COc1ncc(S(=O)(=O)Nc2cncc(Cl)c2O)cc1Br", "note": "[ABR-238901, 5-bromo-N-(5-chloro-4-hydroxypyridin-3-yl)-6-methoxypyridine-3-sulfonamide]", "values": [{"measurement": "Intracellular Nur77 levels in blood Ly6Chi/int monocytes", "setting": "[1]", "value": "lower"}, {"measurement": "Numbers of reparatory Ly6CloMerTKhi macrophages in the myocardium", "setting": "[1]", "value": "reduced"}, {"measurement": "Nur77 levels in Ly6Clo monocytes", "setting": "[1]", "value": "unaffected"}, {"measurement": "Nur77 levels in Ly6CloMerTKhi macrophages", "setting": "[1]", "value": "unaffected"}, {"measurement": "Decrease in body weight", "setting": "[2]; day 1", "value": 5.2, "unit": "%"}, {"measurement": "Decrease in body weight", "setting": "[2]; day 2", "value": 11.7, "unit": "%"}, {"measurement": "Decrease in body weight", "setting": "[2]; day 3", "value": 8.8, "unit": "%"}, {"measurement": "Decrease in body weight", "setting": "[2]; day 4", "value": 4, "unit": "%"}, {"measurement": "Intra-myocardial counts of reparatory macrophages vs PBS-treated MI controls", "setting": "[3]; 3 days treatment", "value": "on par with"}, {"measurement": "Intra-myocardial counts of reparatory macrophages vs PBS-treated MI controls", "setting": "[3]; continuous treatment for 7 days", "value": "significantly lower"}, {"measurement": "Percentage of reparatory Ly6CloMerTKhi out of total CD11b+F4/80+ macrophages", "setting": "[3]; [4]", "value": "significantly decreased"}, {"measurement": "Reduction of the number of reparatory Ly6CloMerTKhi macrophages in hearts vs controls", "setting": "[3]; [4]", "value": "approximately 50%"}, {"measurement": "Cell counts in the bone marrow", "setting": "[3]; treatment for 7 days, day 7", "value": "no differences"}, {"measurement": "Monocytes in the spleen vs MI controls", "setting": "[3]; treatment for 7 days, day 7", "value": "accumulation"}, {"measurement": "Numbers of circulating monocytes", "setting": "[3]; treatment for 7 days, day 7", "value": "significantly lower"}, {"measurement": "Numbers of circulating neutrophils", "setting": "[3]; treatment for 7 days, day 7", "value": "significantly lower"}, {"measurement": "Numbers of neutrophils in the spleen", "setting": "[3]; treatment for 7 days, day 7", "value": "not significantly affected"}, {"measurement": "Presence of monocytes in the heart", "setting": "[3]; treatment for 7 days, day 7", "value": "potently reduced"}, {"measurement": "Presence of total CD11b+F4/80+ macrophages in the heart", "setting": "[3]; treatment for 7 days, day 7", "value": "potently reduced"}]}
